{
  "source": "patent US11246847B2",
  "about": "“Anticancer drug effect enhancer” (Delta-Fly Pharma, Inc., priority 2019, dated 2022)",
  "key": {"stage IVB ovarian cancer": {"test_system": "stage IVB ovarian cancer", "settings": "from July 2018, bicarbonate continued, before endoxan"}, "[1]": {"assay": "Change in pH of urine after citrate salt or sodium bicarbonate in a person with acidic urine (Example 1)"}, "[2]": {"settings": "3 g once a day, compared to potassium citrate•sodium citrate hydrate"}},
  "data": [
    {"smiles": "O=C([O-])O.[Na+]", "note": "[sodium salt of hydrogencarbonate ions, sodium bicarbonate]", "values": [
      {"measurement": "value of CA125", "setting": "stage IVB ovarian cancer", "result": 199},
      {"measurement": "side effect observed", "setting": "[1]; 3 g once a day after a meal", "result": "the patient often burped"},
      {"measurement": "rate of alkalization of urine", "setting": "[1]; [2]", "result": "higher"},
      {"measurement": "rate of urine turning acidic again", "setting": "[1]; [2]", "result": "higher"},
      {"measurement": "time during which the urine was kept alkaline", "setting": "[1]; [2]", "result": "shorter"},
      {"measurement": "pH of urine / ability to keep the urine alkaline", "setting": "[1]; person with acidic urine, 6 tablets (3 g) orally once a day after a meal", "result": "poorer ability to keep the urine alkaline"}
    ]}
  ]
}
